In test [1] the target is High affinity nerve growth factor receptor (Homo sapiens, UniProt P04629). Kind of test: Selectivity interaction (KinomeScan (DiscoverX, competition-binding assay)).
Test [2] has as its target T1, Gamma-aminobutyric acid receptor subunit alpha-1 (Homo sapiens, UniProt P14867).
T1 sequence (P14867 whole entry): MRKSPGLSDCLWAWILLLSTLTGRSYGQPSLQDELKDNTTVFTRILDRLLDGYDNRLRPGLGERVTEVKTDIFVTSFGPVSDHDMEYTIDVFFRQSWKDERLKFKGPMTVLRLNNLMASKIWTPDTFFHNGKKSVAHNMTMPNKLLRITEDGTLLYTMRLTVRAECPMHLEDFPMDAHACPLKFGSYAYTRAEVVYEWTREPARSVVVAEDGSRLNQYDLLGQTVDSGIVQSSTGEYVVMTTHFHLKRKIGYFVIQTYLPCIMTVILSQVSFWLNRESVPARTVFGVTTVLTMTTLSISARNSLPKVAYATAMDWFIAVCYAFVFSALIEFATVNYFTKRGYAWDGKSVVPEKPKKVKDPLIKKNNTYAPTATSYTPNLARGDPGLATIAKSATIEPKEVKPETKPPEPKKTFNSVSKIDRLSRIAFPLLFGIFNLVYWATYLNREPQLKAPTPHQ
Kind of test: Selectivity interaction (GPCR panel (PDSP screen)) EUB0000739a GABRA1.

In test [3] the target is T2, Alpha-1B adrenergic receptor (Homo sapiens, UniProt P35368).
T2 sequence (P35368 whole entry): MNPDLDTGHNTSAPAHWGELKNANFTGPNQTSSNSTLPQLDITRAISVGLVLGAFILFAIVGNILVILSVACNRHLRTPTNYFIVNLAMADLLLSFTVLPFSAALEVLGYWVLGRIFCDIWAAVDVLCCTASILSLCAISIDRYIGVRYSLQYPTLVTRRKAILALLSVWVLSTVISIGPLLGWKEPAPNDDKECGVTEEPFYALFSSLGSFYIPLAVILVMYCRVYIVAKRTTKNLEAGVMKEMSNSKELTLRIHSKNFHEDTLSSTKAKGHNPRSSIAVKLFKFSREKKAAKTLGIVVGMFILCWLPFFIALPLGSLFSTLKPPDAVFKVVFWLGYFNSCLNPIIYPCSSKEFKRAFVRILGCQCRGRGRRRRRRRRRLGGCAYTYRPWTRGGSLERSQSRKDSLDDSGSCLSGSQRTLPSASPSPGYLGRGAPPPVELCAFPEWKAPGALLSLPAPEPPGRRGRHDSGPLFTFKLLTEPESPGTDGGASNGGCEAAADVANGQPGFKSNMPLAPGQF
Briefly: Selectivity interaction (GPCR panel (PDSP screen)) EUB0000739a ADRA1B.

Test [4] addresses Tyrosine-protein kinase JAK2 (Homo sapiens, UniProt O60674). The note with it: at 1 µM.
For test [5], the target named is Tyrosine-protein kinase ABL1 (Homo sapiens, UniProt P00519). As to conditions: at 1 µM.
Chain of Tyrosine-protein kinase ABL1 (P00519 whole entry): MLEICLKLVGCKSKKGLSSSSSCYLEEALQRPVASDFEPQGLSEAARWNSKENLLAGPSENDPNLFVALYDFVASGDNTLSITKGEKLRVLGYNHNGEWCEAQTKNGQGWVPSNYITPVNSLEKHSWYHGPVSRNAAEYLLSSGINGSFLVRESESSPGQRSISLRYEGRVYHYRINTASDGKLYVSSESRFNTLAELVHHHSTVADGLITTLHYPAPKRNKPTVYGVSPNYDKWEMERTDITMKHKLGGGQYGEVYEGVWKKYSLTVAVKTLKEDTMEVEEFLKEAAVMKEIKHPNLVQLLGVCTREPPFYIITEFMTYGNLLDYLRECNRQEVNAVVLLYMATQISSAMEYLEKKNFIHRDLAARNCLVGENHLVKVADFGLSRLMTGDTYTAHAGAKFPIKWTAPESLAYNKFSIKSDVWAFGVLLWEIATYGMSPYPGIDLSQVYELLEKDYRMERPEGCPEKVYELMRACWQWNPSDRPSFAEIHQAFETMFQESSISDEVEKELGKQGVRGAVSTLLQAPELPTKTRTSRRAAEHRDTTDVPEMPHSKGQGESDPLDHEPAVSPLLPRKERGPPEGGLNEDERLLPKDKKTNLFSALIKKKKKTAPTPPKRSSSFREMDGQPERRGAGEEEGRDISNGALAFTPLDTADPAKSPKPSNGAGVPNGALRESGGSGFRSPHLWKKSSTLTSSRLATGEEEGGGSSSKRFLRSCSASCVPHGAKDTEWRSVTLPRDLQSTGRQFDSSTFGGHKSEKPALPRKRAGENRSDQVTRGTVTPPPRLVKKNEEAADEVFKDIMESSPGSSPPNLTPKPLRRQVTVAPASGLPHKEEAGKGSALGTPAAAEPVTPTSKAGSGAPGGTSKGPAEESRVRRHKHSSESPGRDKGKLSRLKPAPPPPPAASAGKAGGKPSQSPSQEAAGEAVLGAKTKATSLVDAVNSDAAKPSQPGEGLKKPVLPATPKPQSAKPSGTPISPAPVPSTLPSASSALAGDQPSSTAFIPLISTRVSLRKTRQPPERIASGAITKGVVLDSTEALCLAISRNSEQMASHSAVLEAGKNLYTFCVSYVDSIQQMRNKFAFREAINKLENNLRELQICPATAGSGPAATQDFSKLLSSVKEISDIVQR
Test [6] concerns the target Epidermal growth factor receptor (Homo sapiens, UniProt P00533). Briefly: Selectivity interaction (KinomeScan (DiscoverX)) EUB0000715a EGFR. The note with it: at 100 nM.
Test [7] has as its target T3, Sodium/nucleoside cotransporter 2 (Homo sapiens, UniProt O43868).
T3 sequence (O43868 whole entry): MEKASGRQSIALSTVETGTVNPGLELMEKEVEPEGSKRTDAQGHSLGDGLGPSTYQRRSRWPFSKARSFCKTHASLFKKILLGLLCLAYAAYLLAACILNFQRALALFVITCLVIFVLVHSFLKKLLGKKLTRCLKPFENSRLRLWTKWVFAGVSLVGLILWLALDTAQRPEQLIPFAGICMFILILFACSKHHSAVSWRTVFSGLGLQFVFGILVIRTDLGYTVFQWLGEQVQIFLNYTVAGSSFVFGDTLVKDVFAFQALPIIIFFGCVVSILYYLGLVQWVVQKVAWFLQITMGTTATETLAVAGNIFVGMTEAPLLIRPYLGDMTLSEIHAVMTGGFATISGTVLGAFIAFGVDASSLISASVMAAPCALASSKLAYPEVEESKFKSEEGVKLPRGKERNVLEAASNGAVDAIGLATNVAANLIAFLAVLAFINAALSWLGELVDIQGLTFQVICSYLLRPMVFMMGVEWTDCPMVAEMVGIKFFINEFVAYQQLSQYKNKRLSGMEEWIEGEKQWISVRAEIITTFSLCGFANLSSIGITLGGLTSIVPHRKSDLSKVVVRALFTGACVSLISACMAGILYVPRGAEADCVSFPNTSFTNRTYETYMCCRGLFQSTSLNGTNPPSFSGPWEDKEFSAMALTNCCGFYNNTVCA
Briefly: Selectivity interaction (Enzymatic assay (PanLabs Profiling)) EUB0000715a SLC28A2.

Test [8] concerns the target T4, Tyrosine-protein kinase JAK3 (Homo sapiens) (UniProt P52333).
T4 sequence (whole entry): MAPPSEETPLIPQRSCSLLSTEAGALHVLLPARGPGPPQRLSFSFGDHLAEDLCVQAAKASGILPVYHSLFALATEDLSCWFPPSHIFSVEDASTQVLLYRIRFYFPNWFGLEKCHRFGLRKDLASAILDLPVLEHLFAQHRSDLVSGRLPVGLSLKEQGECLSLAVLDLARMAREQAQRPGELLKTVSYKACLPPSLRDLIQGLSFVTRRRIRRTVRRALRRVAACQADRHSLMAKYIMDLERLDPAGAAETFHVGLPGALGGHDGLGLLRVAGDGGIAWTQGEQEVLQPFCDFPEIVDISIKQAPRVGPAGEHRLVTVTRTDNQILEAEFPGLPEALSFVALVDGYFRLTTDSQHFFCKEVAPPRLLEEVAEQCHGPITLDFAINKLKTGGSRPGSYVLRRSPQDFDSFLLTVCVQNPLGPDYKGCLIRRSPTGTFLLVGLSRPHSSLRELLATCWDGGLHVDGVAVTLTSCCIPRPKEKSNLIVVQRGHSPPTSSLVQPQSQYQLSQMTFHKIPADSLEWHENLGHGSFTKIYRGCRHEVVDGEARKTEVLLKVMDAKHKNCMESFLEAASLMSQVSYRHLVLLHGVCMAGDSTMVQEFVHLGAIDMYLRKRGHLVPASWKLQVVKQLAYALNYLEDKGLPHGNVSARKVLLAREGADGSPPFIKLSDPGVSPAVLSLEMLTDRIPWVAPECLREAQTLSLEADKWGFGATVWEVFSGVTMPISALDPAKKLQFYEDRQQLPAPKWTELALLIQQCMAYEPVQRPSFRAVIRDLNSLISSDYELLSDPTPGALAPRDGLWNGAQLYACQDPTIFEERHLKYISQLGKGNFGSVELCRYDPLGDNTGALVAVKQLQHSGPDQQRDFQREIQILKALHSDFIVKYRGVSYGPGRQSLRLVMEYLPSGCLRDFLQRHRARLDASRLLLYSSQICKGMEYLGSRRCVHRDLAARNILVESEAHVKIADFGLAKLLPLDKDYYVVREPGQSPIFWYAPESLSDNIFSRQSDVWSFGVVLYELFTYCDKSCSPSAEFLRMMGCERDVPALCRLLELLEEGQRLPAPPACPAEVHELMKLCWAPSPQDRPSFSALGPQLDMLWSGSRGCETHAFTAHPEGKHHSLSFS
Kind of test: Selectivity interaction (KinomeScan (DiscoverX)) EUB0000715a JAK3. The note with it: at 100 nM.

For test [9], the target named is T5, Mitogen-activated protein kinase kinase kinase 13 (Homo sapiens) (UniProt O43283).
T5 sequence (whole entry): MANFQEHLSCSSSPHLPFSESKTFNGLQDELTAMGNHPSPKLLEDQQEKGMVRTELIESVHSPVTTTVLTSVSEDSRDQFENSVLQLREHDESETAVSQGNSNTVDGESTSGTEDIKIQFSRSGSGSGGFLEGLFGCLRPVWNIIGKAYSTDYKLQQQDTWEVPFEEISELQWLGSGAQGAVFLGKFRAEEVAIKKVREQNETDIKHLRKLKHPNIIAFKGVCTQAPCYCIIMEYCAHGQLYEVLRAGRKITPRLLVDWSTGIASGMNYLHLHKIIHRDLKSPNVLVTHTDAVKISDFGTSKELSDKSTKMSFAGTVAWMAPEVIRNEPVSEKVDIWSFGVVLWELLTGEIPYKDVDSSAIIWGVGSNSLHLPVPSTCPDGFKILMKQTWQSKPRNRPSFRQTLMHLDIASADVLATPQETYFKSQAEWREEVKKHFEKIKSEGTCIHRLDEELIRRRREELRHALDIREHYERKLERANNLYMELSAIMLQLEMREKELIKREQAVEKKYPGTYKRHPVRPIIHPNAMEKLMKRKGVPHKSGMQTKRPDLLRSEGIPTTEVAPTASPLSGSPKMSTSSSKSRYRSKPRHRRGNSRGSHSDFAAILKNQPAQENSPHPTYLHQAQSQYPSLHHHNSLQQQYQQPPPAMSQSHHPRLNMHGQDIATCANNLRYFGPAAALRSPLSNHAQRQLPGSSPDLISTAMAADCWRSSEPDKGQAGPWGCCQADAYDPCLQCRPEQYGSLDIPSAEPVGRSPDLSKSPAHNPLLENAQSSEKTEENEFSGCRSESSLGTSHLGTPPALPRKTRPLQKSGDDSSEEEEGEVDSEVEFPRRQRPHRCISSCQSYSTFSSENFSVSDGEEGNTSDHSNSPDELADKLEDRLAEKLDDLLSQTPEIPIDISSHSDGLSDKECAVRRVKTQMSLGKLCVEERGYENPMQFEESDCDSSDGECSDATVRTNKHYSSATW
Briefly: Selectivity interaction (KinomeScan (DiscoverX)) EUB0000715a MAP3K13. The note with it: at 100 nM.

Chain of Epidermal growth factor receptor (P00533 whole entry): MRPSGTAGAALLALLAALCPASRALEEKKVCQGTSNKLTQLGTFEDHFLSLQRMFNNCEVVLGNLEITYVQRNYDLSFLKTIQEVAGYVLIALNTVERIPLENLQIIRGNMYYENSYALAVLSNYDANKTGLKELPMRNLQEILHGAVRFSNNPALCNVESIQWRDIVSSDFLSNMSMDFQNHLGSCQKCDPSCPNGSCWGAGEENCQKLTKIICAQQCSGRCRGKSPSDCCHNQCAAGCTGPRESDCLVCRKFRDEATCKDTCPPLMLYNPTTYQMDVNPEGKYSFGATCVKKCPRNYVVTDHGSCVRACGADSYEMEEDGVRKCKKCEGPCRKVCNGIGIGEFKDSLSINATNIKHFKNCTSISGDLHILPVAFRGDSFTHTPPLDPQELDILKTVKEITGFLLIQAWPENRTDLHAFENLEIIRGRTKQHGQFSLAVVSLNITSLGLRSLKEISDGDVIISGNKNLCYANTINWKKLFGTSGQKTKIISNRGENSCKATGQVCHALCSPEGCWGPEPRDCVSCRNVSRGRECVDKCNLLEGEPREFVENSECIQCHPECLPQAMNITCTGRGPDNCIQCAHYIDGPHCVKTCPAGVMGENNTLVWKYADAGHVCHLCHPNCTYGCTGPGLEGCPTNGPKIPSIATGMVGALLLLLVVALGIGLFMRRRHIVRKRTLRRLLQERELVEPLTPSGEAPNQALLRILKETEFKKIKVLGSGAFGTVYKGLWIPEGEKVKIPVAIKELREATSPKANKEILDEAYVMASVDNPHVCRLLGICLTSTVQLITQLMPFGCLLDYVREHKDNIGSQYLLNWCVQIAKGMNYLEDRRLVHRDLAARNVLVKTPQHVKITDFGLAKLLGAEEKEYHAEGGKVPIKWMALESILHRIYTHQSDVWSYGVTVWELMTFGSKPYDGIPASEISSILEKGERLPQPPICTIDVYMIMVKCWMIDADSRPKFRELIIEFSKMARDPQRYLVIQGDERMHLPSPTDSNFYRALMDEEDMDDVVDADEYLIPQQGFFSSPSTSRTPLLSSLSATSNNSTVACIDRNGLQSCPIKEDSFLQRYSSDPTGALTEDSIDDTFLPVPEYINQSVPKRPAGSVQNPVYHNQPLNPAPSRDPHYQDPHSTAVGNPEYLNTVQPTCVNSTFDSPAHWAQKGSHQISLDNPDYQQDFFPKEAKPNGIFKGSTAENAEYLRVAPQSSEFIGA
Chain of Tyrosine-protein kinase JAK2 (O60674 whole entry): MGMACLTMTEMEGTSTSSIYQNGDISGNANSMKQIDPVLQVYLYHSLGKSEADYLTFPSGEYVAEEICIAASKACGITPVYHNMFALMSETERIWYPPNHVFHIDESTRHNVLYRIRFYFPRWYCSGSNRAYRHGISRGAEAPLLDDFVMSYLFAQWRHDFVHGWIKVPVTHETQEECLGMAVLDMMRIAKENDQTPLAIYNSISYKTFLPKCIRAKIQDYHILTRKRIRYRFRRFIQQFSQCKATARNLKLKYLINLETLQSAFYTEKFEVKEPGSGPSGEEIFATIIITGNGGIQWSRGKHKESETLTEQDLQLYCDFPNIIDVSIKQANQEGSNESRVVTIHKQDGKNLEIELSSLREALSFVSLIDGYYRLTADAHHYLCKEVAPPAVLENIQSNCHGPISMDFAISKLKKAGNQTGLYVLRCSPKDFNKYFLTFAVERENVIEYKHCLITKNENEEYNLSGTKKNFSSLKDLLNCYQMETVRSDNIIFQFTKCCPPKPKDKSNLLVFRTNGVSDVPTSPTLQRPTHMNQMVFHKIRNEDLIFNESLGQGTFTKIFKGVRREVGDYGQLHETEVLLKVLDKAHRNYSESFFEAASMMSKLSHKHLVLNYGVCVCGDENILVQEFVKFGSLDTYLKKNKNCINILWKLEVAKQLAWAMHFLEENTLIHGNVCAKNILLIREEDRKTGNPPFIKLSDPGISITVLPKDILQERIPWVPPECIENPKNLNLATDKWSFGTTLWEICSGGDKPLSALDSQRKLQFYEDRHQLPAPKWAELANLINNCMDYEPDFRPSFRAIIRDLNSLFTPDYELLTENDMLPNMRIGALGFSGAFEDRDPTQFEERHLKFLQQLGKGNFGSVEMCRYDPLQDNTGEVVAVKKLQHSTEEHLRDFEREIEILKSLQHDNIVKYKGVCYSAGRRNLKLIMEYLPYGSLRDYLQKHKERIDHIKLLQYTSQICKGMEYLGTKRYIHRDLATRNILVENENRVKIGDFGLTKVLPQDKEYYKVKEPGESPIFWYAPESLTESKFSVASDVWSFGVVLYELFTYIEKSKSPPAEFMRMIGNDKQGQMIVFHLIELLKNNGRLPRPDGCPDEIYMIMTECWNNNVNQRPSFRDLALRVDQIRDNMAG
Chain of High affinity nerve growth factor receptor (P04629 whole entry): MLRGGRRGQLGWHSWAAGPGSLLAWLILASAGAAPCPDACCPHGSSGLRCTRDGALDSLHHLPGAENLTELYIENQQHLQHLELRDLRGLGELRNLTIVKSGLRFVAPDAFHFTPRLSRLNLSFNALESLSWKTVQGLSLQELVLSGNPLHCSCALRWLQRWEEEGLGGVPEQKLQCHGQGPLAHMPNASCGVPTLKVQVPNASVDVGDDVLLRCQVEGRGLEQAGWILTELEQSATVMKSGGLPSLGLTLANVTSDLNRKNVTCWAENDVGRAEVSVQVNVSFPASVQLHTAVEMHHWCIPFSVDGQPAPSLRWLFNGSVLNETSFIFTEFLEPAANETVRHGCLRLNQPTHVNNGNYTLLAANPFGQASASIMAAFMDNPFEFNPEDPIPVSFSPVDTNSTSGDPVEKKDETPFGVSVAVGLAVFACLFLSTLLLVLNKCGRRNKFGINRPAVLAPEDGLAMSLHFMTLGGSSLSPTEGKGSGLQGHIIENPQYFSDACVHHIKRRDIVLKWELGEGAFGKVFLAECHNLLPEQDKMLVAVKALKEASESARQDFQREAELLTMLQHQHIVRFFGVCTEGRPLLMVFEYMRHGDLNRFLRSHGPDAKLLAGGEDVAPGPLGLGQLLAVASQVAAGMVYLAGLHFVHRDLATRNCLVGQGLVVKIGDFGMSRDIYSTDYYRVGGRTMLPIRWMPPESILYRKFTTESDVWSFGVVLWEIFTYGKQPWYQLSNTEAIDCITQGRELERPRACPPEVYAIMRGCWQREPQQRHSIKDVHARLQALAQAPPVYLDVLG

In the case of `COc1ccc(COc2ccc(Cc3cnc(N)nc3N)cc2OC)cc1` [GW632580X], the Kd in test [1] was under 0.1 µM.
`COc1cc(-c2cn([C@H]3CCc4ccccc4N(CC(F)(F)F)C3=O)nn2)ccc1-n1ccc(C)n1`: the inhibition constant (Ki) in [2] is 5.07 µM; in [3], over 10 µM. Moreover, the values for the % of control in test [4] and in test [5] were 34% and 47%, respectively.
On to `C[C@@H]1CN(c2cc(-c3n[nH]c4ccc(OC5(C)CC5)cc34)ncn2)C[C@H](C)O1` [MLi-2], for which the values for the % of control in [6], in test [8] and in test [9] were 43%, 0% and 0%, respectively. In [7], this compound registered an IC50 of 9.7 µM.

The record behind these values is ChEMBL document CHEMBL5212743, “Selectivity Literature for EUbOPEN Chemogenomics Library wave 3” (2023).
